Laboratory results published in patent US9521846B2, “Template-fixed peptidomimetics with antimicrobial activity” (priority 2006, dated 2016).
In brackets after ≈: the same amount, converted by molar mass. Non-standard residues stand in square brackets, D forms with d. Residues, ends and D or L forms follow the SMILES beside them. Dab = NCC[C@H](N)C(=O)O

Key:
HELA cells (Acc57) = assay: Cytotoxicity assay, MTT reduction (LC 50, GI 50); type: cell-based
Description: The cytotoxicity of the peptides to HELA cells (Acc57) and COS-7 cells (CRL-1651) was determined using the MIT reduction assay [see ref. 2 and 3, below]. Briefly the method was as follows: HELA cells and COS-7 cells were seeded at 7.0×10^3 and, respectively, 4.5×10^3 cells per well and grown in 96-well […] plates for 24 hours at 37° C. at 5% CO2. At this point, time zero (Tz) was determined by MTT reduction (see below). The supernatant of the remaining wells was discarded, and fresh medium and the peptides in serial dilutions of 12.5, 25 and 50 μM were dispensed into the wells. Each peptide concentration was assayed in triplicate. Incubation of the cells was continued for 48 hours at 37° C. at 5% CO2. Wells were then washed once with phosphate buffered saline (PBS) and subsequently 100 μl MIT reagent (0.5 mg/ml in medium RPMI1640 and, respectively, DMEM) were added to the wells. This was incubated at 37° C. for 2 hours and subsequently the medium was aspirated and 100 μl isopropanol were added to each well. The absorbance at 595 nm of the solubilized product was measured (OD595peptide). For each concentration averages were calculated from triplicates. The percentage of growth was calculated as follows: (OD595peptide-OD595Tz-OD595Empty well)/(OD595Tz-OD595Empty well)×100% and was plotted for each peptide concentration.
The LC 50 values (Lethal Concentration, defined as the concentration that kills 50% of the cells) were determined for each peptide by using the trend line function of EXCEL (Microsoft Office 2000) for the concentrations (50, 25, 12.5 and 0 μM), the corresponding growth percentages and the value −50, (=TREND(C50:C0,%50:%0,−50)). The GI 50 (Growth Inhibition) concentrations were calculated for each peptide by using a trend line function for the concentrations (50, 25, 12.5 and 0 […]), the corresponding percentages and the value 50, (=TREND (C50:C0,%50:%0,50).

[1] = tested on: human red blood cells (hRBC); assay: Hemolysis; type: cell-based; conditions: 100
Description: Hemolysis of red blood cells is often employed for assessment of toxicity of related compounds such as protegrin or tachyplesin. Values are given as %-lysis of red blood cells observed at a concentration of 100 μg/ml. Typical values determined for cationic peptides such as protegrin and tachyplesin range between 30-40% with average MIC-values of 1-5 μg/ml over a wide range of pathogens.
The peptides were tested for their hemolytic activity against human red blood cells (hRBC). Fresh hRBC were washed three times with phosphate buffered saline (PBS) by centrifugation for 10 min at 2000×g. Peptides at a concentration of 100 μM were incubated with 20% v/v hRBC for 1 hour at 37° C. The final erythrocyte concentration was approximately 0.9×10^9 cells per ml. A value of 0% and, respectively, 100% cell lysis was determined by incubation of the hRBC in the presence of PBS alone and, respectively, 0.1% Triton X-100 in H2O. The samples were centrifuged, the supernatant was 20-fold diluted in PBS buffer and the optical density (OD) of the sample at […] was measured. The 100% lysis value (OD540H20) gave an OD540 of approximately 1.3-1.8. Percent hemolysis was calculated as follows: (OD540peptide/OD540H20)×100%.

[2] = tested on: Pseudomonas aeruginosa P1021913; type: cell-based; conditions: P1021913
Description: (§1) The selective antimicrobial activities of the peptides were determined in 96-well plates (Nunclon polystyrene) by the standard NCCLS broth microdilution method (see ref 1, below) with slight modifications. Innocula of the microorganisms were diluted into Mueller-Hinton (MH) broth+0.02% BSA and compared with a 0.5 Mcfarland standard to give appr. 10^6 colony forming units (CFU)/ml. Aliquots (50 μl) of inoculate were added to 50 μl of MH broth+0.02% BSA containing the peptide in serial two-fold dilutions. The following microorganisms were used to determine antibiotic selectivity of the peptides: Escherichia coli (ATCC 25922), Pseudomonas aeruginosa (P. aeruginosa ATCC 27853, P8191900, P1021903, P1021913, IMP 1 Livermore 3140).

[3] = tested on: Pseudomonas aeruginosa IMP 1 Livermore 3140; type: cell-based; conditions: IMP 1 Livermore 3140
Description: as §1

[4] = tested on: Pseudomonas aeruginosa P1021903; type: cell-based; conditions: P1021903
Description: as §1

[5] = tested on: Pseudomonas aeruginosa P8191900; type: cell-based; conditions: P8191900
Description: as §1

P. aeruginosa ATCC 27853 = type: cell-based, Pseudomonas aeruginosa; conditions: ATCC 27853
Description: as §1

Structure (SMILES)	Average MIC (P. aeruginosa) [µg/mL]	Cytotoxicity GI50 Hela cells (HELA cells (Acc57)) [µM]	Hemolysis at 100 μg/ml [1] [%]	MIC P. aeruginosa P1021913 [2] [µg/mL]	MIC P. aeruginosa IMP1 Livermore 3140 [3] [µg/mL]	MIC P. aeruginosa P1021903 [4] [µg/mL]	MIC P. aeruginosa P8191900 [5] [µg/mL]	MIC P. aeruginosa ATCC 27853 (P. aeruginosa ATCC 27853) [µg/mL]
CC[C@H](C)[C@@H]1NC(=O)[C@H](Cc2c[nH]c3ccccc23)NC(=O)[C@H]([C@@H](C)O)NC(=O)[C@@H]2CCCN2C(=O)[C@H]2CCCN2C(=O)[C@H](CCN)NC(=O)[C@H](C)NC(=O)[C@H](CCN)NC(=O)[C@H](CCN)NC(=O)[C@H](Cc2c[nH]c3ccccc23)NC(=O)[C@H](Cc2c[nH]cn2)NC(=O)[C@H](CCN)NC(=O)[C@H](CCCCN)NC(=O)[C@H](CCN)NC1=O [Example 21] (cyclo(TWI[Dab]K[Dab]HW[Dab][Dab]A[Dab][dP]P))	0.40	50	0.4	0.31 (≈ 0.192 µM)	1.00 (≈ 0.618 µM)	0.21 (≈ 0.13 µM)	0.40 (≈ 0.247 µM)	0.09 (≈ 0.0556 µM)
CC[C@H](C)[C@@H]1NC(=O)[C@H](Cc2c[nH]c3ccccc23)NC(=O)[C@H](C)NC(=O)[C@@H]2CCCN2C(=O)[C@H]2CCCN2C(=O)[C@H](CCN)NC(=O)[C@H](C(C)C)NC(=O)[C@H](CCN)NC(=O)[C@H](CCN)NC(=O)[C@H](Cc2c[nH]c3ccccc23)NC(=O)[C@H](CCN)NC(=O)[C@H](CCN)NC(=O)[C@H](CCN)NC(=O)[C@H](CCN)NC1=O [Example 23] (cyclo(AWI[Dab][Dab][Dab][Dab]W[Dab][Dab]V[Dab][dP]P))	>1	13	0.5	1.25 (≈ 0.806 µM)	>2	1.50 (≈ 0.967 µM)	1.00 (≈ 0.645 µM)	1.00 (≈ 0.645 µM)
CC[C@H](C)[C@@H]1NC(=O)[C@H](Cc2c[nH]c3ccccc23)NC(=O)[C@H]([C@@H](C)O)NC(=O)[C@@H]2CCCN2C(=O)[C@H]2CCCN2C(=O)[C@H](CCN)NC(=O)[C@H](C)NC(=O)[C@H](CCN)NC(=O)[C@H](CCN)NC(=O)[C@H](Cc2c[nH]c3ccccc23)NC(=O)[C@H](CCCCN)NC(=O)[C@H](CCN)NC(=O)[C@H](CCCCN)NC(=O)[C@H](CCN)NC1=O [Example 26] (cyclo(TWI[Dab]K[Dab]KW[Dab][Dab]A[Dab][dP]P))	0.22	50	0.8	0.18 (≈ 0.112 µM)	0.40 (≈ 0.249 µM)	0.13 (≈ 0.0808 µM)	0.30 (≈ 0.186 µM)	0.08 (≈ 0.0497 µM)
CC[C@H](C)[C@@H]1NC(=O)[C@H](Cc2c[nH]c3ccccc23)NC(=O)[C@H]([C@@H](C)O)NC(=O)[C@@H]2CCCN2C(=O)[C@H]2CCCN2C(=O)[C@H](CCN)NC(=O)[C@H](C)NC(=O)[C@H](CCN)NC(=O)[C@H](CCCCN)NC(=O)[C@H](Cc2c[nH]c3ccccc23)NC(=O)[C@H](CCN)NC(=O)[C@H](CCN)NC(=O)[C@H](CCCCN)NC(=O)[C@H](CCN)NC1=O [Example 27] (cyclo(TWI[Dab]K[Dab][Dab]WK[Dab]A[Dab][dP]P))	0.28	50	0.6	0.21 (≈ 0.131 µM)	0.50 (≈ 0.311 µM)	0.30 (≈ 0.186 µM)	0.30 (≈ 0.186 µM)	0.09 (≈ 0.0559 µM)
